{"source": "patent US11753409B2", "about": "“Crystalline salts of a B-RAF kinase inhibitor” (Xynomic Pharmaceuticals, Inc., priority 2017, dated 2023)", "key": {"[1]": {"assay": "Sorption-desorption (DVS) of the salts with XRPD before and after", "type": "physicochemical", "description": "Dynamic Vapor Sorption (DVS) was performed in a IGAsorp Water Sorption Analyzer from Hiden Isochema. Adsorption and desorption isotherms were performed at 25° C. with 10% RH step intervals ranging from 0% relative humidity up to 90% relative humidity."}, "[2]": {"assay": "Equilibrium solubility in various aqueous media (solubility after 2 h)", "type": "physicochemical", "conditions": "for solubility at 2 h: thermodynamic from solid", "description": "Saturated solutions are prepared in well plates by adding an appropriate volume of selected aqueous media (typically in the range of 0.25-1.5 mL) into each well which contains a known quantity of solid drug substance (typically in the range 0.5-5.0 mg). The wells are shaken or stirred for a predefined time period (typically in a range of 2-24 h) and then filtered using appropriate filter membranes (typically PTFE-filters with 0.45 μm pore size). Filter absorption is avoided by discarding the first few drops of filtrate. The amount of dissolved drug substance is determined by UV spectroscopy. In addition, the pH of the aqueous saturated solution is measured using a glass-electrode pH meter.\nThe equilibrium solubility of N-(3-(5-((1-Ethylpiperidin-4-yl)(methyl)amino)-3-(pyrimidin-5-yl)-1H-pyrrolo[3,2-b]pyridin-1-yl)-2,4-difluorophenyl)propane-1-sulfonamide monohydrochloride salt in various media was determined.\nThe solubility of N-(3-(5-((1-Ethylpiperidin-4-yl)(methyl)amino)-3-(pyrimidin-5-yl)-1H-pyrrolo[3,2-b]pyridin-1-yl)-2,4-difluorophenyl)propane-1-sulfonamide monosuccinate salt in various media was determined."}, "[3]": {"assay": "Pharmacokinetics following oral administration to rats", "type": "in vivo, HsdHan:WIST Norway rats", "conditions": "rat; for AUD: AUD range 0-24 h", "description": "The pharmacokinetics of N-(3-(5-((1-ethylpiperidin-4-yl)(methyl)amino)-3-(pyrimidin-5-yl)-1H-pyrrolo[3,2-b]pyridin-1-yl)-2,4-difluorophenyl)propane-1-sulfonamide hydrochloride salt and N-(3-(5-((1-ethylpiperidin-4-yl)(methyl)amino)-3-(pyrimidin-5-yl)-1H-pyrrolo[3,2-b]pyridin-1-yl)-2,4-difluorophenyl)propane-1-sulfonamide […] following oral administration at 40 mg and 80 mg (dose calculated as the free base) to HsdHan:WIST Norway rats. Each salt was administered to 3 animals."}, "[4]": {"assay": "Intrinsic dissolution rate, rotating disc method", "type": "physicochemical", "conditions": "pH of medium 1.0 (0.1M HCl), 37° C."}, "[5]": {"assay": "Intrinsic dissolution rate, rotating disc method", "type": "physicochemical", "description": "The intrinsic dissolution rate of 3-(5-((1-ethylpiperidin-4-yl)(methyl)amino)-3-(pyrimidin-5-yl)-1H-pyrrolo[3,2-b]pyridin-1-yl)-2,4-difluorophenyl)propane-1-sulfonamide salts was determined in aqueous media covering a range of pH 1.1-7.4 using the rotating disc method which maintains a constant surface area.\nThe drug substance (5 mg) was compressed at 356.1 Newtons for 60 s to form a disk. These disks were mounted to sample holders which fit into a miniaturized dissolution testing apparatus. The dissolution media were stirred at 200 rpm at a temperature of 37° C. Samples were automatically withdrawn every second minute from the dissolution vessel and assayed by UV spectrophotometry.\nThe intrinsic dissolution rate of N-(3-(5-((1-ethylpiperidin-4-yl)(methyl)amino)-3-(pyrimidin-5-yl)-TH-pyrrolo[3,2-b]pyridin-1-yl)-2,4-difluorophenyl)propane-1-sulfonamide monohydrochloride salt in various media was measured in media at various pH values.\nThe intrinsic dissolution rate of N-(3-(5-((1-ethylpiperidin-4-yl)(methyl)amino)-3-(pyrimidin-5-yl)-1H-pyrrolo[3,2-b]pyridin-1-yl)-2,4-difluorophenyl)propane-1-sulfonamide monosuccinate salt in various media was measured in media at various pH values."}, "[6]": {"assay": "Milling and compression stress followed by XRPD", "type": "physicochemical", "description": "FIG. 20 is a plot of the XRPD of N-(3-(5-((1-ethylpiperidin-4-yl)(methyl)amino)-3-(pyrimidin-5-yl)-1H-pyrrolo[3,2-b]pyridin-1-yl)-2,4-difluorophenyl)propane-1-sulfonamide monohydrochloride salt following milling in a swing mill for 10 min. at 30 rps.\nFIG. 21 is a plot of the XRPD of N-(3-(5-((1-ethylpiperidin-4-yl)(methyl)amino)-3-(pyrimidin-5-yl)-1H-pyrrolo[3,2-b]pyridin-1-yl)-2,4-difluorophenyl)propane-1-sulfonamide monohydrochloride salt following compression at 2000 N for 1 s to a tablet (diameter-5 mm).\nFIG. 31 is a plot of the XRPD of N-(3-(5-((1-ethylpiperidin-4-yl)(methyl)amino)-3-(pyrimidin-5-yl)-1H-pyrrolo[3,2-b]pyridin-1-yl)-2,4-difluorophenyl)propane-1-sulfonamide monosuccinate salt following milling in a swing mill for 10 min. at 30 rps.\nFIG. 32 is a plot of the XRPD of N-(3-(5-((1-ethylpiperidin-4-yl)(methyl)amino)-3-(pyrimidin-5-yl)-1H-pyrrolo[3,2-b]pyridin-1-yl)-2,4-difluorophenyl)propane-1-sulfonamide monosuccinate salt following compression at 2000 N for 1 s to a tablet (diameter-5 mm)."}}, "note": "“Also recorded” adds a separate entry of the source. Read-outs that look alike come from different tables or passages of the source."}
{"compound": "CCCS(=O)(=O)Nc1ccc(F)c(-n2cc(-c3cncnc3)c3nc(N(C)C4CCN(CC)CC4)ccc32)c1F.O=C(O)CCC(=O)O", "note": "[Monosuccinate Salt, N-(3-(5-((1-Ethylpiperidin-4-yl)(methyl)amino)-3-(pyrimidin-5-yl)-1H-pyrrolo[3,2-b]pyridin-1-yl)-2,4-difluorophenyl)propane-1-sulfonamide monosuccinate salt]", "values": [{"measurement": "Change in structure (XRPD) after sorption-desorption experiment", "setting": "[1]; XRPD before and after, monosuccinate salt", "value": "no change in crystallinity or polymorphic form; also recorded: no significant change in structure occurred"}, {"measurement": "Reversible weight gain (isotherm sorption-desorption)", "setting": "[1]; range from 0-80% relative humidity", "value": "approximately 0.25%"}, {"measurement": "Reversible weight gain (isotherm sorption-desorption)", "setting": "[1]; range from 0-90% relative humidity", "value": "approximately 0.4%"}, {"measurement": "Weight gain (sorption-desorption)", "setting": "[1]; range from 10-90% relative humidity, scale-up sample", "value": "approximately 1.2%"}, {"measurement": "solubility at 2 h", "setting": "[2]; 0.01 M HCl, simulated gastric fluid, HCl (0.01M)", "value": "> 50", "unit": "µg/mL"}, {"measurement": "solubility at 2 h", "setting": "[2]; 0.1 M HCl, simulated gastric fluid, HCl (0.1M)", "value": 200, "unit": "µg/mL"}, {"measurement": "Solubility compared with the monohydrochloride salt", "setting": "[2]; a number of media tested", "value": "substantially higher"}, {"measurement": "solubility at 2 h", "setting": "[2]; aqueous buffer, 0.1M Citric acid", "value": "> 5000", "unit": "µg/mL"}, {"measurement": "solubility at 2 h", "setting": "[2]; aqueous buffer, Acetate Buffer (pH 5.0)", "value": "> 5000", "unit": "µg/mL"}, {"measurement": "solubility at 2 h", "setting": "[2]; aqueous buffer, McIlvaine Buffer (pH 2.2)", "value": "> 5000", "unit": "µg/mL"}, {"measurement": "solubility at 2 h", "setting": "[2]; aqueous buffer, McIlvaine Buffer (pH 3.0)", "value": "> 5000", "unit": "µg/mL"}, {"measurement": "solubility at 2 h", "setting": "[2]; aqueous buffer, McIlvaine Buffer (pH 4.0)", "value": "> 5000", "unit": "µg/mL"}, {"measurement": "solubility at 2 h", "setting": "[2]; aqueous buffer, McIlvaine Buffer (pH 4.5)", "value": "> 5000", "unit": "µg/mL"}, {"measurement": "solubility at 2 h", "setting": "[2]; aqueous buffer, McIlvaine Buffer (pH 5.0)", "value": "> 5000", "unit": "µg/mL"}, {"measurement": "solubility at 2 h", "setting": "[2]; aqueous buffer, McIlvaine Buffer (pH 6.0)", "value": 3700, "unit": "µg/mL"}, {"measurement": "solubility at 2 h", "setting": "[2]; aqueous buffer, McIlvaine Buffer (pH 6.8)", "value": "> 5000", "unit": "µg/mL"}, {"measurement": "solubility at 2 h", "setting": "[2]; aqueous buffer, McIlvaine Buffer (pH 7.4)", "value": 300, "unit": "µg/mL"}, {"measurement": "solubility at 2 h", "setting": "[2]; aqueous buffer, Phosphate Buffer (pH 6.8)", "value": "> 5000", "unit": "µg/mL"}, {"measurement": "solubility at 2 h", "setting": "[2]; aqueous buffer, Sorensen Buffer (pH 9.0)", "value": 1, "unit": "µg/mL"}, {"measurement": "solubility at 2 h", "setting": "[2]; aqueous buffer, Sorensen Buffer (pH 11)", "value": 50, "unit": "µg/mL"}, {"measurement": "solubility at 2 h", "setting": "[2]; Simulated intestinal fluid (FaSSIF)", "value": 3, "unit": "µg/mL"}, {"measurement": "solubility at 2 h", "setting": "[2]; Simulated intestinal fluid (FeSSIF)", "value": 400, "unit": "µg/mL"}, {"measurement": "solubility at 2 h", "setting": "[2]; water", "value": "> 2000", "unit": "µg/mL"}, {"measurement": "AUD", "setting": "[3]; 40 mg/kg oral", "value": 30.3, "unit": "µM·h"}, {"measurement": "AUD", "setting": "[3]; 80 mg/kg oral", "value": 25.1, "unit": "µM·h"}, {"measurement": "Tmax", "setting": "[3]; HsdHan:WIST, in vivo, 40 mg/kg oral", "value": 2, "unit": "h"}, {"measurement": "Tmax", "setting": "[3]; HsdHan:WIST, in vivo, 80 mg/kg oral", "value": 2.7, "unit": "h"}, {"measurement": "bioavailability", "setting": "[3]; HsdHan:WIST, plasma, po, 40 mg/kg dose", "value": 50, "unit": "%"}, {"measurement": "Cmax", "setting": "[3]; HsdHan:WIST, plasma, 40 mg/kg oral", "value": 6550, "unit": "nM"}, {"measurement": "Cmax", "setting": "[3]; HsdHan:WIST, plasma, 80 mg/kg oral", "value": 3520, "unit": "nM"}, {"measurement": "concentration at 24 h", "setting": "[3]; HsdHan:WIST, in vivo, po, 40 mg/kg, Time 24.0, 40 mg/kg oral, mean n = 3, read-out: Blood Plasma Concentrations", "value": 3.98, "unit": "nM"}, {"measurement": "concentration at 24 h", "setting": "[3]; HsdHan:WIST, in vivo, po, 80 mg/kg, Time 24.0, 80 mg/kg oral, mean n = 3, read-out: Blood Plasma Concentrations", "value": 5.09, "unit": "nM"}, {"measurement": "concentration at 24 h", "setting": "[3]; Time 0.5, 40 mg/kg oral, mean n = 3, read-out: Blood Plasma Concentrations", "value": 523, "unit": "nM"}, {"measurement": "concentration at 24 h", "setting": "[3]; Time 0.5, 80 mg/kg oral, mean n = 3, read-out: Blood Plasma Concentrations", "value": 274, "unit": "nM"}, {"measurement": "concentration at 24 h", "setting": "[3]; Time 1.0, 40 mg/kg oral, mean n = 3, read-out: Blood Plasma Concentrations", "value": 1320, "unit": "nM"}, {"measurement": "concentration at 24 h", "setting": "[3]; Time 1.0, 80 mg/kg oral, mean n = 3, read-out: Blood Plasma Concentrations", "value": 638, "unit": "nM"}, {"measurement": "concentration at 24 h", "setting": "[3]; Time 2.0, 40 mg/kg oral, mean n = 3, read-out: Blood Plasma Concentrations", "value": 6550, "unit": "nM"}, {"measurement": "concentration at 24 h", "setting": "[3]; Time 2.0, 80 mg/kg oral, mean n = 3, read-out: Blood Plasma Concentrations", "value": 3380, "unit": "nM"}, {"measurement": "concentration at 24 h", "setting": "[3]; Time 4.0, 40 mg/kg oral, mean n = 3, read-out: Blood Plasma Concentrations", "value": 3860, "unit": "nM"}, {"measurement": "concentration at 24 h", "setting": "[3]; Time 4.0, 80 mg/kg oral, mean n = 3, read-out: Blood Plasma Concentrations", "value": 2620, "unit": "nM"}, {"measurement": "concentration at 24 h", "setting": "[3]; Time 6.0, 40 mg/kg oral, mean n = 3, read-out: Blood Plasma Concentrations", "value": 1140, "unit": "nM"}, {"measurement": "concentration at 24 h", "setting": "[3]; Time 6.0, 80 mg/kg oral, mean n = 3, read-out: Blood Plasma Concentrations", "value": 1420, "unit": "nM"}, {"measurement": "Exposure values compared with the monohydrochloride salt", "setting": "[3]; oral", "value": "substantially higher"}, {"measurement": "Intrinsic Dissolution Rate", "setting": "[4]", "value": 201, "unit": "μg/cm^2/min."}, {"measurement": "Intrinsic dissolution rate compared with the monohydrochloride salt", "setting": "[5]", "value": "substantially higher"}, {"measurement": "Intrinsic Dissolution Rate", "setting": "[5]; pH of medium 2.2, 37° C.", "value": 6844, "unit": "μg/cm^2/min."}, {"measurement": "Intrinsic Dissolution Rate", "setting": "[5]; pH of medium 3.0, 37° C.", "value": 6605, "unit": "μg/cm^2/min."}, {"measurement": "Intrinsic Dissolution Rate", "setting": "[5]; pH of medium 4.5, 37° C.", "value": 2457, "unit": "μg/cm^2/min."}, {"measurement": "Intrinsic Dissolution Rate", "setting": "[5]; pH of medium 6.8, 37° C.", "value": 2533, "unit": "μg/cm^2/min."}, {"measurement": "Intrinsic Dissolution Rate", "setting": "[5]; pH of medium 7.4, 37° C.", "value": "<1", "unit": "μg/cm^2/min."}, {"measurement": "Crystallinity and polymorphic form after compression (XRPD)", "setting": "[6]; 2000 N for 1 s to a tablet (diameter 5 mm)", "value": "no significant decrease in crystallinity or change in polymorphic form"}, {"measurement": "Crystallinity and polymorphic form after milling (XRPD)", "setting": "[6]; swing mill for 10 min. at 30 rps", "value": "slight decrease in crystallinity but no change in polymorphic form"}]}
